Data taken from paper PMC4393269, “Carvacrol Codrugs: A New Approach in the Antimicrobial Plan” (PLoS ONE, 2015).
Like-named read-outs stand apart in the source and are kept apart here.

What was measured:
[1] = test system: human red blood cells (h-RBC); assay: Hemolytic activity; type: cell-based
Experimental: Experimental protocols to study hemolysis on human red cells were approved by Ethics Committee of the University “G. d’Annunzio” Chieti-Pescara. Human red cells were from two volunteers, who signed the informed consent for this study.
Hemolytic activity of carvacrol codrugs 1–10 was tested against human red blood cells (h-RBC). Fresh human blood, collected with EDTA, was centrifuged at 3000 rpm for 5 min then washed three times with PBS pH 7.3. Red blood cells were diluted to 4% in PBS and incubated with different codrugs concentrations ranging from 25 to 0.05 mg/mL. After 1 h of incubation at 37°C, the suspensions were sedimented by centrifugation and the release of hemoglobin was determined by absorbance measurement at 405 nm and compared with a 0% hemolysis control (PBS) and a 100% hemolysis control (PBS with 1% v/v Triton X-100). The percentage of hemolysis was calculated using the following equation: Hemolysis (%) = [(OD405sample - OD4050% lysis control)/(OD405100% lysis control - OD4050% lysis contro)] X 100

[2] = Lipophilicity LogP (experimental); type: physicochemical; conditions: mean of three experiments (SD)
Excerpt: Table 3 Physicochemical properties of carvacrol codrug 4. | column: Lipophilicity / LogP ^a

[3] = Kinetics of enzymatic hydrolysis in plasma; type: in vitro ADME; conditions: 37°C; for half-life at 40 µg/mL: pH 7.4, read-out: t½ (converted)
Experimental: The HPLC system consisted of a Waters 600 HPLC pump (Waters Corporation, Milford, MA, USA), equipped with a Waters 2996 photodiode array detector. The column was a Kinetex RP-C8 column (3.0 x 150 mm, 5 μm). The mobile phase consisted of 0.1% TFA in acetonitrile/0.1% TFA in 95% H2O and 5% acetonitrile 50:50, under isocratic conditions at a flow rate of 1 mL/min. The UV detector was set at a length of 220 nm.
The enzymatic hydrolysis was evaluated in human and rat plasma. […] A volume of 200 μL of this solution was added with pre-heated (37°C) plasma fractions (4 mL) previously diluted with 0.02 M phosphate buffer (pH 7.4) to give a final volume of 5 mL (80% plasma). Aliquots (100 μL) were taken at various times and deproteinized by mixing with 200 μL of 0.01 M HCl in methanol. After centrifugation for 5 min at 5000 × g, 10 μL of the supernatant layer were analysed by chromatography as described above. The amounts of remaining intact compound were plotted as a function of incubation time.

## C=CCSC[C@H](NC(C)=O)C(=O)Oc1cc(C(C)C)ccc1C [codrug 4, N-Ac-Cys(Allyl)-CAR]
[1]; 4% h-RBC, 1 h at 37°C
  concentration at which hemolytic activity is over 50%: 5000 µg/mL
[1]; h-RBC, at MIC values
  hemolysis / toxicity at MIC values (in words): not toxic at the MIC values
[2]
  logP: 1.21
[3]; 80% human plasma
  kobs: 1.38 (± 0.03) h^-1
  half-life at 40 µg/mL: 30 min
[3]; 80% rat plasma
  kobs: 1.38 (± 0.05) h^-1
  half-life at 40 µg/mL: 30 min
